In ChEMBL document CHEMBL1139909, “Safrole oxide is a useful tool for investigating the effect of apoptosis in vascular endothelial cells on neural stem cell survival and differentiation in vitro” (2007):
The source made the active and inactive calls. The calls are words filed in the database; no cut-off is given here.

Experiments:
Endothelial cell [1] = assay: Induction of apoptosis in neural stem cells co-cultured with vascular endothelial cells assessed as nuclear condensation at 70 ug/mL after 10 hrs; format: functional, cell-based; settings: Mus musculus
Endothelial cell [2] = assay: Induction of apoptosis in neural stem cells co-cultured with vascular endothelial cells assessed as inhibition of cell differentiation at 70 ug/mL after 10 hrs; format: functional, cell-based; settings: Mus musculus
Endothelial cell [3] = assay: Induction of apoptosis in neural stem cells co-cultured with vascular endothelial cells assessed as DNA fragmentation at 70 ug/mL after 10 hrs; format: functional, cell-based; settings: Mus musculus
[4] = Increase in apoptosis rate in neural stem cells co-cultured with vascular endothelial cells assessed as cell survival at 70 ug/mL after 10 hrs; format: functional; settings: Mus musculus, read-out: Activity
Endothelial cell [5] = assay: Induction of apoptosis in neural stem cells co-cultured with vascular endothelial cells assessed as neurites degeneration at 70 ug/mL after 10 hrs; format: functional, cell-based; settings: Mus musculus
Neural stem cell = assay: Induction of apoptosis in neural stem cells assessed as cell viability at 10 to 100 ug/mL by MTT assay; format: functional, cell-based; settings: Mus musculus
Endothelial cell [6] = assay: Induction of necrosis in neural stem cells co-cultured with vascular endothelial cells assessed as LDH release at 70 ug/mL after 10 hrs relative to control; format: functional, cell-based; settings: Mus musculus

c1cc2c(cc1CC1CO1)OCO2 (configuration not stated)
Activity (Endothelial cell [1]): Active | Activity (Endothelial cell [2]): Active | Activity (Endothelial cell [3]): Active | viability at 70 µg/mL [4]: 92% | Activity (Endothelial cell [5]): Active | Activity (Neural stem cell): inactive | Activity (Endothelial cell [6]): inactive
